Assay in all cases: In vitro MIC, Agar Well Diffusion Method
Common to all, as to assay type: cell-based

Assay [1] has as its system Micrococcus luteus PCI ATCC 9341. The settings on record: ATCC9341, Culture Micrococcus luteus PCI ATCC 9341. The text has this: (§1) The in vitro activity of compounds of the present invention as measured by the Minimum Inhibitory Concentration (MIC) in micrograms per milliliter (mcg/ml), utilizing the Agar Well Diffusion Method, against a variety of Gram-negative microorganisms is illustrated in the following Table, in which the compounds evaluated were as follows: • Compound A: [2S-[2α,3α,5α,6β(R*)]]-6-[[[[(4-Ethyl-2,3-dioxo-1-piperazinyl)carbonyl]amino]phenylacetyl]amino]-3-methyl-3-[[(1-methyl-1H-tetrazole-5-yl)thio]methyl]-7-oxo-4-thia-1-azabicyclo[3.2.0]-heptane-2-carboxylic acid monosodium salt sesquihydrate • Compound B: [2S-(2α,3α,5α,6β)]-3-Methyl-3-[[(1-methyl-1H-tetrazol-5-yl)-thio]methyl-7-oxo-6-[(phenylacetyl)amino]-4-thia-1-azabicyclo[3.2.0] heptane-2-carboxylic acid monosodium salt • Compound C: [2S-[2α,3α,5α,6β(Z)]]-6-[[(2-Amino-4-thiazolyl)-(methoxyimino)-acetyl]amino]-3-methyl -3-[[(1-methyl-1H-tetrazol-5-yl)thio]methyl]-7-oxo-4-thia-1-azabicyclo[3.2.0]heptane-2-carboxylic acid monosodium salt • Compound D: [2S-(2α,3α,5α,6β)]-3-(Azidomethyl)-3-methyl-7-oxo-6-[(phenylacetyl)amino]-4-thia-1-azabicyclo-[3.2.0]heptane-2-carboxylic acid monosodium salt • Compound E: [2S-(2α,3α,5α,6β)]-1-[[2-carboxy-3-methyl-7-oxo-6-[(phenylacetyl)amino]-4-thia-1-azabicyclo-[3.2.0]hept-3-yl]methylpyridinium hydroxide inner salt • Compound F: [2S-(2α,3α,5α,6β)]-3-[[(2,5-Dihydro-6-hydroxy-2-methyl-5-oxo-1,2,4-triazine-3-yl)thio] -methyl]-3-methyl-7-oxo-6-[(phenylacetyl)amino]-4-thia-1-azabicyclo[3.2.0]heptane-2-carboxylic acid disodium salt • Compound G: [2S-(2α,3α,5α,6β)]-3-[(Acetylthio)-methyl]-3-methyl-7-oxo-6-[(phenylacetyl)amino]-4-thia-1-azabicyclo[3.2.0]heptane-2-carboxylic acid monosodium salt • Compound H: [2S-(2α,3α,5α,6β)]-3-[[[3,4-bis(Acetyloxy)benzoyl]oxy]methyl]-3-methyl-7-oxo-6-[(phenylacetyl)amino]-4-thia-1-azabicyclo[3.2.0]heptane-2-carboxylic acid monosodium salt

For assay [2], the system named is Pseudomonas aeruginosa 56 ATCC 8079. The settings on record: ATCC8079, Culture Pseudomonas aeruginosa 56 ATCC 8079.
Excerpt: as §1

For assay [3], the system named is Escherichia coli 3081B. The note with it: Culture Escherichia coli 3081B.
Excerpt: as §1

Assay [4] deals with Bacillus subtilus 558 NRRL 558. The note with it: NRRL558, Culture Bacillus subtilus 558 NRRL 558.
Excerpt: as §1

Assay [5] has as its system Escherichia coli 1269B. The settings on record: Culture Escherichia coli 1269B.
Excerpt: as §1

Assay [6] has as its system Staphylococcus aureus 3647B. The note with it: Culture Staphylococcus aureus 3647B.
Excerpt: as §1

The subject of assay [7] is Escherichia coli 2722B. The note with it: Culture Escherichia coli 2722B.
Excerpt: as §1

In assay [8] the test system is Escherichia coli 2721B. The note with it: Culture Escherichia coli 2721B.
Excerpt: as §1

Assay [9] has as its system Streptococcus faecium ATCC 8043. The settings on record: Enterococcus faecium, ATCC8043, Culture Streptococcus faecium ATCC 8043.
Excerpt: as §1

The subject of assay [10] is Bacillus megaterium 164 ATCC 8011. The note with it: Priestia megaterium, ATCC8011, Culture Bacillus megaterium 164 ATCC 8011.
Excerpt: as §1

In assay [11] the test system is Pseudomonas maltophilia 28978 ATCC 17445. The settings on record: Stenotrophomonas maltophilia, ATCC17445, Culture Pseudomonas maltophilia 28978 ATCC 17445.
Excerpt: as §1

The test system of assay [12] is Proteus vulgaris 100. The note with it: Culture Proteus vulgaris 100.
Excerpt: as §1

For assay [13], the system named is Escherichia coli 3082B. The settings on record: Culture Escherichia coli 3082B.
Excerpt: as §1

Assay [14] deals with Proteus vulgaris 101N ATCC 6380. The note with it: ATCC6380, Culture Proteus vulgaris 101N ATCC 6380.
Excerpt: as §1

In assay [15] the test system is Pseudomonas aeruginosa 56M. The settings on record: Culture Pseudomonas aeruginosa 56M.
Excerpt: as §1

In assay [16] the test system is Staphylococcus aureus 82 ATCC 6538P. The note with it: ATCC6538P, Culture Staphylococcus aureus 82 ATCC 6538P.
Excerpt: as §1

The test system of assay [17] is Staphylococcus aureus 3037B. The note with it: Culture Staphylococcus aureus 3037B.
Assay [18] relates to Staphylococcus aureus 1059B. The settings on record: Culture Staphylococcus aureus 1059B.

Counter-ions that a name gives are not always drawn.

Usually MIC stands for the lowest concentration found to suppress growth. The low end stands for a more susceptible organism, the high end for a less susceptible organism.

`CON=C(C(=O)NC1C(=O)N2C1SC(C)(CSc1nnnn1C)C2C(=O)O)c1csc(N)n1` (stereo not drawn) [Compound C, [2S-[2α,3α,5α,6β(Z)]]-6-[[(2-Amino-4-thiazolyl)-(methoxyimino)-acetyl]amino]-3-methyl-3-[[(1-methyl-1H-tetrazol-5-yl)thio]methyl]-7-oxo-4-thia-1-azabicyclo[3.2.0]heptane-2-carboxylic acid monosodium salt]: the MIC in assay [1] is 0.24 µg/mL; in assay [2], 62.5 µg/mL; in [3], more than 125 µg/mL; in assay [4] it was 0.49 µg/mL; in assay [5], more than 500 µg/mL; in assay [6], 250 µg/mL. The minimum inhibitory concentration (MIC) was 1.95 µg/mL in assay [7]; 31.3 µg/mL in [8]; 125 µg/mL in [9]; 0.12 µg/mL in [10]; more than 500 µg/mL in [11]; 250 µg/mL in [12]. Further, the minimal inhibitory concentration (MIC) was 1.95 µg/mL in assay [13]; 31.3 µg/mL in assay [14]; 0.98 µg/mL in assay [15]; 0.49 µg/mL in assay [16]; 250 µg/mL in assay [17]; 3.9 µg/mL in assay [18].

As to `CC1(CN=[N+]=[N-])SC2C(NC(=O)Cc3ccccc3)C(=O)N2C1C(=O)O` (stereo not drawn) [Compound D, [2S-(2α,3α,5α,6β)]-3-(Azidomethyl)-3-methyl-7-oxo-6-[(phenylacetyl)amino]-4-thia-1-azabicyclo-[3.2.0]heptane-2-carboxylic acid monosodium salt], the minimal inhibitory concentration (MIC) is 0.03 µg/mL in assay [1]; more than 125 µg/mL in [2]; 125 µg/mL in [3]; 0.06 µg/mL in assay [4]; more than 125 µg/mL in [5]; 125 µg/mL in assay [6]. Moreover, the MIC in assay [7] is 15.6 µg/mL; in assay [8] it was 62.5 µg/mL; in assay [9] it was 7.8 µg/mL; in assay [10] it was 0.12 µg/mL; in [11], more than 125 µg/mL; in [12], more than 125 µg/mL. In addition, the minimal inhibitory concentration (MIC) was determined as 7.8 µg/mL in [13]; 15.6 µg/mL in [14]; 3.9 µg/mL in assay [15]; 0.03 µg/mL in assay [16]; 125 µg/mL in [17]; 7.8 µg/mL in assay [18].

(Values after EP0367124A1, “Penicillanic acid derivatives” (F. HOFFMANN-LA ROCHE AG, priority 1988, dated 1990).)
